Laboratory results: patent US10968215B2 (SHANGHAI HAIHE PHARMACEUTICAL CO., LTD., priority 2016, dated 2021)
pIC50: −log10 of the molar value. Read-outs that look alike come from different tables or passages of the source.

Molecular target: PRC2 complex (EZH2 Y641F/EED/SUZ12/RbAp48/AEBP2) (Homo sapiens (Human), UniProt Q15910, Y641F)
Test: Activity of a compound to PRC2 complex (EZH2 Y641F), HTRF
[1] = read-out: IC50 (EZH2_Y641F), EZH2 Y641F PRC2 complex, HTRF, class symbols

Sequence of PRC2 complex (EZH2 Y641F/EED/SUZ12/RbAp48/AEBP2) (Q15910 whole entry Y641F): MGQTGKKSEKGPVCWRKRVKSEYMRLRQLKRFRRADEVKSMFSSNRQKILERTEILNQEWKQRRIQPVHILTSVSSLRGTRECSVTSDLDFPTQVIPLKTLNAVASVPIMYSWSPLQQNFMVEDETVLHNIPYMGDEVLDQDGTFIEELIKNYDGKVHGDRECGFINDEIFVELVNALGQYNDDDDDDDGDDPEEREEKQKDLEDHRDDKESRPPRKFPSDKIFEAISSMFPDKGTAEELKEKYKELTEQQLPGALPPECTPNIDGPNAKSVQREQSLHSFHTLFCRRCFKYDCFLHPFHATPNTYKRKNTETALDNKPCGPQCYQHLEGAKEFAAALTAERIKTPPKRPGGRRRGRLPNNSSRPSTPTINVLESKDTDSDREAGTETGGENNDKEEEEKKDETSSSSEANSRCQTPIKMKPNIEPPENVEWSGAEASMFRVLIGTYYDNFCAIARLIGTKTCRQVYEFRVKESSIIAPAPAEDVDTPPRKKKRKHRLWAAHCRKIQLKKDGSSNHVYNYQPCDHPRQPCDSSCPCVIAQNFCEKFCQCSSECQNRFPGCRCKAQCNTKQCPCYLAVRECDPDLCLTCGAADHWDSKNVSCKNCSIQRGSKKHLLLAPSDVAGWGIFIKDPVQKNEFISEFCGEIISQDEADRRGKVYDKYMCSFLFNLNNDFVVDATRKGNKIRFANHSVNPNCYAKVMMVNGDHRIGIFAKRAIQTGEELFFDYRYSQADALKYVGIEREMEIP
Sequence of PRC2 complex (EZH2 Y641F/EED/SUZ12/RbAp48/AEBP2) (O75530 whole entry partner): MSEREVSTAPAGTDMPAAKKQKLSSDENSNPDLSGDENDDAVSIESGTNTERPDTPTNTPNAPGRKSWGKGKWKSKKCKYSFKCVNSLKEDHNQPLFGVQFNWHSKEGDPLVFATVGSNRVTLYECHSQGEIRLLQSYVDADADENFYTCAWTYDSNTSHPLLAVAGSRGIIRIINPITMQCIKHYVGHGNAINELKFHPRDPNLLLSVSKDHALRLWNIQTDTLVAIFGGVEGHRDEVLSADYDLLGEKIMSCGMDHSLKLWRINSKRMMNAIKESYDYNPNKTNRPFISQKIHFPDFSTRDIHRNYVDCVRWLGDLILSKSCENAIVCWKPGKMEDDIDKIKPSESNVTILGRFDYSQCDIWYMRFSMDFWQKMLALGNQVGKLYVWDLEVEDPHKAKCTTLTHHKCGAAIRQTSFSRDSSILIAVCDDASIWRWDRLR
Sequence of PRC2 complex (EZH2 Y641F/EED/SUZ12/RbAp48/AEBP2) (Q15022 whole entry partner): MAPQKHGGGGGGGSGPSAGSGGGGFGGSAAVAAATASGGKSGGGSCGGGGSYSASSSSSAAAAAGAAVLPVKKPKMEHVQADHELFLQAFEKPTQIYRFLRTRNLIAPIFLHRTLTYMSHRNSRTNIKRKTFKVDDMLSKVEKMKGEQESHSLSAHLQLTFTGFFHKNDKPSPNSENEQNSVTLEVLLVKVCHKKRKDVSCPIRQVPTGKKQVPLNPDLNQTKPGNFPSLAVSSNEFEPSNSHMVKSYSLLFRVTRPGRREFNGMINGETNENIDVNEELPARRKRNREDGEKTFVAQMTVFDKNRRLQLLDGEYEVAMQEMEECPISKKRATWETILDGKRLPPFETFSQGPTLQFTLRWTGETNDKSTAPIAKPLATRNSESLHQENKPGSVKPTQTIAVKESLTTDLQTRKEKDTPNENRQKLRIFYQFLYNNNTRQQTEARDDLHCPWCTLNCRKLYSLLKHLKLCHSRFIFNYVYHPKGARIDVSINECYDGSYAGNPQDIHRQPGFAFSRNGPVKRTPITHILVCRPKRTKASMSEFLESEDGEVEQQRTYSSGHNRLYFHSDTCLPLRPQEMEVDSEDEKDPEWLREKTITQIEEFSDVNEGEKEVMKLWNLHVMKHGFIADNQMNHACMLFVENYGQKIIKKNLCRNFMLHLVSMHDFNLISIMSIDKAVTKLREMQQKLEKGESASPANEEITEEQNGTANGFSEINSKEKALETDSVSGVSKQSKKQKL
Sequence of PRC2 complex (EZH2 Y641F/EED/SUZ12/RbAp48/AEBP2) (Q09028 whole entry partner): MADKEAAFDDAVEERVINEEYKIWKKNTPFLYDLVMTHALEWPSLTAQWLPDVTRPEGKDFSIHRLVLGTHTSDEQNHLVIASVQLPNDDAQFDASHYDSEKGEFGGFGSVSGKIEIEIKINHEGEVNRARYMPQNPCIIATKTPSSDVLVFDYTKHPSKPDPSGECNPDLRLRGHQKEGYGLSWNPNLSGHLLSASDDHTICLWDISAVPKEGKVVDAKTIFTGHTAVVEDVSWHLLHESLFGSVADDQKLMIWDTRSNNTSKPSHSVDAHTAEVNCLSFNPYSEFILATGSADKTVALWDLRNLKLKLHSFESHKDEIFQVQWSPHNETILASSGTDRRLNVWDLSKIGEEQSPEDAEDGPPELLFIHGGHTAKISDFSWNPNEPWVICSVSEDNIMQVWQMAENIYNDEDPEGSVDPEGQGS
Sequence of PRC2 complex (EZH2 Y641F/EED/SUZ12/RbAp48/AEBP2) (Q6ZN18 whole entry partner): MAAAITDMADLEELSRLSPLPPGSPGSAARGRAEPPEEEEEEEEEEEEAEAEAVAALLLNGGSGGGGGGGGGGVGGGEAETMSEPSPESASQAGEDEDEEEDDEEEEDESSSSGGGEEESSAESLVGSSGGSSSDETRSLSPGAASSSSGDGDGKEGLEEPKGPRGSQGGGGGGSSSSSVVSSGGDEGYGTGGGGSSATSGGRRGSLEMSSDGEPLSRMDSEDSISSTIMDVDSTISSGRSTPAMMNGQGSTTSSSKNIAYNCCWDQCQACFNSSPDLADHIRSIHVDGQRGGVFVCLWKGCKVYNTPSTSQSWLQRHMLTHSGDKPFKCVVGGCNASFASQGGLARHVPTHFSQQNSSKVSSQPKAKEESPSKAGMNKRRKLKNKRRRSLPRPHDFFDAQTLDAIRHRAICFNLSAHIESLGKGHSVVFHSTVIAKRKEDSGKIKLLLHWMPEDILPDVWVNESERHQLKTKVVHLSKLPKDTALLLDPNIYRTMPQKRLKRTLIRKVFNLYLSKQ

Compound | pIC50 [1] | pIC50
Cc1cc(C)c(CNC(=O)c2cc3c(-c4cccc(N5CCOCC5)c4)ccn3c(C(C)N3CCOCC3)c2C)c(=O)[nH]1 (stereo not drawn) [Example 116, N-((4,6-dimethyl-2-oxo-1,2-dihydropyridin-3-yl)methyl)-1-(3-(dimethylamine)phenyl)-6-methyl-5-(1-morpholinylethyl)indolizine-7-carboxamide] | > 7.00 | 
Cc1cc(C)c(CNC(=O)c2cc3cc(Br)cn3c(C(C)N3CCC(F)(F)CC3)c2C)c(=O)[nH]1 (stereo not drawn) [Example 123, 2-bromo-5-(1-(4,4-difluoropiperidin-1-yl)ethyl)-N-((4,6-dimethyl-2-oxo-1,2-dihydropyridin-3-yl)methyl)-6-methylindolizine-7-carboxamide] | 5.00 to 6.00 | 
Cc1[nH]c(=O)c(CNC(=O)c2cc3c(-c4ccc(N)nc4)ccn3c(C(C)N3CCN(CC(F)(F)F)CC3)c2C)c2c1CN(CC(C)C)CC2 (stereo not drawn) [Compound 188, 1-(6-aminopyridin-3-yl)-N-((7-isobutyl-1-methyl-3-oxo-2,3,5,6,7,8-hexahydro-2,7-naphthyridin-4-yl)methyl)-6-methyl-5-(1-(4-(2,2,2-trifluoroethyl)piperazin-1-yl)ethyl)indolizine-7-carboxamide] |  | 6.00 to 7.00
CCN(c1c(C)c(C(=O)NCc2c(C)cc(C)[nH]c2=O)cc2cccn12)C1CCOCC1 [Example 56, N-((4,6-dimethyl-2-oxo-1,2-dihydropyridin-3-yl)methyl)-6-methyl-5-(ethyl(tetrahydro-2H-pyran-4-yl)amino)indolizine-7-carboxamide] |  | > 7.00
COc1ccc(-c2cc3cc(C(=O)NCc4c(C)cc(C)[nH]c4=O)c(C)c(C(C)N4CCOCC4)n3c2)cc1 (stereo not drawn) [Example 97, N-((4,6-dimethyl-2-oxo-1,2-dihydropyridin-3-yl)methyl)-2-(4-methoxyphenyl)-6-methyl-5-(1-morpholinoethyl)indolizine-7-carboxamide] |  | 6.00 to 7.00
Cc1cc(C)c(CNC(=O)c2cc3cccn3c(C(C)OCc3ccccc3)c2C)c(=O)[nH]1 (stereo not drawn) [Example 9, 5-(1-(benzyloxy)ethyl)-N-((4,6-dimethyl-2-oxo-1,2-dihydropyridin-3-yl)methyl)-6-methylindolizine-7-carboxamide] | 6.00 to 7.00 | 
Cc1cc(C)c(CNC(=O)c2cc3cc(Br)cn3c(C(C)N3CCC(F)(F)CC3)c2C)c(=O)[nH]1 (stereo not drawn) [Example 122] | 6.00 to 7.00 | 
Cc1cc(C)c(CNC(=O)c2cc3c(-c4ccc(N5CCOCC5)cc4)ccn3c(C(C)N3CCOCC3)c2C)c(=O)[nH]1 (stereo not drawn) [Example 118, N-((4,6-dimethyl-2-oxo-1,2-dihydropyridin-3-yl)methyl)-1-(4-(dimethylamine)phenyl)-6-methyl-5-(1-morpholinylethyl)indolizine-7-carboxamide] | > 7.00 | 
Cc1cc(C)c(CNC(=O)c2cc3cc(-c4cccc(N5CCOCC5)c4)cn3c(C(C)N3CCOCC3)c2C)c(=O)[nH]1 (stereo not drawn) [Example 36, N-((4,6-dimethyl-2-oxo-1,2-dihydropyridin-3-yl)methyl)-6-methyl-5-(1-morphinolinylethyl)-2-(3-morphinolinylphenyl)indolizine-7-carboxamide] | > 7.00 | 
Cc1cc(C)c(CNC(=O)c2cc3c(-c4ccccc4)ccn3c(C(C)N3CCC(N(C)C)CC3)c2C)c(=O)[nH]1 (stereo not drawn) [Example 127, N-((4,6-dimethyl-2-oxo-1,2-dihydropyridin-3-yl)methyl)-6-methyl-5-(4-dimethylaminopiperidinylethyl)-1-phenylindolizine-7-carboxamide] |  | > 7.00
Cc1cc(C)c(CNC(=O)c2cc3c(-c4cccc(N5CCOCC5)c4)ccn3c(C(C)N3CCOCC3)c2C)c(=O)[nH]1 (stereo not drawn) [Example 117, N-((4,6-dimethyl-2-oxo-1,2-dihydropyridin-3-yl)methyl)-6-methyl-5-(1-morpholinylethyl)-1-(3-morpholinylphenyl)indolizine-7-carboxamide] |  | > 7.00
Cc1cc(C)c(CNC(=O)c2cc3c(-c4ccc(N5CCOCC5)cc4)ccn3c(C(C)N3CCOCC3)c2C)c(=O)[nH]1 (stereo not drawn) [Example 119, N-((4,6-dimethyl-2-oxo-1,2-dihydropyridin-3-yl)methyl)-6-methyl-5-(1-morpholinylethyl)-1-(4-morpholinylphenyl)indolizine-7-carboxamide] | > 7.00 | 
Cc1cc(C)c(CNC(=O)c2cc3cccn3c(C(C)OCc3ccncc3)c2C)c(=O)[nH]1 (stereo not drawn) [Example 16, N-((4,6-dimethyl-2-oxo-1,2-dihydropyridin-3-yl)methyl)-6-methyl-5-(1-(pyridine-4-ylmethoxy)ethyl)indolizine-7-carboxamide] | 6.00 to 7.00 | 
CCN(c1c(C)c(C(=O)NCc2c(C)cc(C)[nH]c2=O)cc2cc(Br)cn12)C1CNC1 [Example 59] | 5.00 to 6.00 | 

Further lines, with some results ahead:

pIC50 [1] | Compound | pIC50
6.00 to 7.00 | COc1cc(-c2ccn3c([C@H](C)N4CCN(CC(F)(F)F)CC4)c(C)c(C(=O)NCc4c(OC)cc(C)[nH]c4=O)cc23)ccn1 (single isomer, unassigned) [Compound 195, (S)—N-((4-methoxy-6-methyl-2-oxo-1,2-dihydropyridin-3-yl)methyl)-1-(2-methoxypyridin-4-yl)-6-methyl-5-(1-(4-(2,2,2-trifluoroethyl)piperazin-1-yl)ethyl)indolizine-7-carboxamide or (R)—N-((4-methoxy-6-methyl-2-oxo-1,2-dihydropyridin-3-yl)methyl)-1-(2-methoxypyridin-4-yl)-6-methyl-5-(1-(4-(2,2,2-trifluoroethyl)piperazin-1-yl)ethyl)indolizine-7-carboxamide] | 
> 7.00 | Cc1cc(C)c(CNC(=O)c2cc3cc(-c4cncn4C)cn3c(C(C)N3CCN(CC(F)(F)F)CC3)c2C)c(=O)[nH]1 (stereo not drawn) [Example 136, N-((4,6-dimethyl-2-oxo-1,2-dihydropyridin-3-yl)methyl)-6-methyl-2-(1-methyl-1H-imidazol-5-yl)-5-(1-(4-(2,2,2-trifluoroethyl)piperazin-1-yl)ethyl)indolizine-7-carboxamide] | 
> 7.00 | COc1cc(C)[nH]c(=O)c1CNC(=O)c1cc2cc(-c3cncs3)cn2c(C(C)N2CCN(CC(F)(F)F)CC2)c1C (stereo not drawn) [Example 142, N-((4-methoxy-6-methyl-2-oxo-1,2-dihydropyridin-3-yl)methyl)-6-methyl-2-(thiazole-5-yl)-5-(1-(4-(2,2,2-trifluoroethyl)piperazin-1-yl)ethyl)indolizine-7-carboxamide] | 
> 7.00 | COc1cc(C)[nH]c(=O)c1CNC(=O)c1cc2c(-c3ccc(C)nn3)ccn2c([C@H](C)N2CCN(CC(F)(F)F)CC2)c1C (single isomer, unassigned) [Compound 201, (S)—N-((4-methoxy-6-methyl-2-oxo-1,2-dihydropyridin-3-yl)methyl)-6-methyl-1-(6-methylpyridazin-3-yl)-5-(1-(4-(2,2,2-trifluoroethyl)piperazin-1-yl)ethyl)indolizine-7-formamide or (R)—N-((4-methoxy-6-methyl-2-oxo-1,2-dihydropyridin-3-yl)methyl)-6-methyl-1-(6-methylpyridazin-3-yl)-5-(1-(4-(2,2,2-trifluoroethyl)piperazin-1-yl)ethyl)indolizine-7-formamide] | 
> 7.00 | COc1cc(C)[nH]c(=O)c1CNC(=O)c1cc2c(-c3c(C)noc3C)ccn2c(C(C)N2CCN(CC(F)(F)F)CC2)c1C (stereo not drawn) [Compound 161, 1-(3,5-dimethylisoxazol-4-yl)-N-((4-methoxy-6-methyl-2-oxo-1,2-dihydropyridin-3-yl)methyl)-6-methyl-5-(1-(4-(2,2,2-trifluoroethyl)piperazin-1-yl)ethyl)indolizine-7-carboxamide] | 
> 7.00 | COc1cc(C)[nH]c(=O)c1CNC(=O)c1cc2c(-c3ccc(C)nc3C)ccn2c(C(C)N2CCN(CC(F)(F)F)CC2)c1C (stereo not drawn) [Compound 176] | 
> 7.00 | Cc1cc(C)c(CNC(=O)c2cc3c(-c4ccccc4)ccn3c(C(C)N3CCOCC3)c2C)c(=O)[nH]1 (stereo not drawn) [Example 82, N-((4,6-dimethyl-2-oxo-1,2-dihydropyridin-3-yl)methyl)-6-methyl-5-(1-morphinolinylethyl)-1-phenylindolizine-7-carboxamide] | 
> 7.00 | COc1cc(-c2ccn3c([C@H](C)N4CCN(CC(F)(F)F)CC4)c(C)c(C(=O)NCc4c(OC)cc(C)[nH]c4=O)cc23)ccn1 (single isomer, unassigned) [Compound 194, (S)—N-((4-methoxy-6-methyl-2-oxo-1,2-dihydropyridin-3-yl)methyl)-1-(2-methoxypyridin-4-yl)-6-methyl-5-(1-(4-(2,2,2-trifluoroethyl)piperazin-1-yl)ethyl)indolizine-7-carboxamide or (R)—N-((4-methoxy-6-methyl-2-oxo-1,2-dihydropyridin-3-yl)methyl)-1-(2-methoxypyridin-4-yl)-6-methyl-5-(1-(4-(2,2,2-trifluoroethyl)piperazin-1-yl)ethyl)indolizine-7-carboxamide] | 
6.00 to 7.00 | Cc1cc(C)c(CNC(=O)c2cc3cc(-c4ccn(C)n4)cn3c(C(C)N3CCOCC3)c2C)c(=O)[nH]1 (stereo not drawn) [Example 85, N-((4,6-dimethyl-2-oxo-1,2-dihydropyridin-3-yl)methyl)-6-methyl-2-(1-methyl-1H-pyrazole-3-yl)-5-(1-morpholinoethyl)indolizine-7-carboxamide] | 
> 7.00 | COc1cc(C)[nH]c(=O)c1CNC(=O)c1cc2c(-c3cnc(C)nc3)ccn2c([C@H](C)N2CCN(CC(F)(F)F)CC2)c1C (single isomer, unassigned) [Compound 198, (S)—N-((4-methoxy-6-methyl-2-oxo-1,2-dihydropyridin-3-yl)methyl)-6-methyl-1-(2-methylpyrimidin-5-yl)-5-(1-(4-(2,2,2-trifluoroethyl)piperazin-1-yl)ethyl)indolizine-7-formamide or (R)—N-((4-methoxy-6-methyl-2-oxo-1,2-dihydropyridin-3-yl)methyl)-6-methyl-1-(2-methylpyrimidin-5-yl)-5-(1-(4-(2,2,2-trifluoroethyl)piperazin-1-yl)ethyl)indolizine-7-formamide] | 
